The text below walks through data of US20120214862A1, “MODULATION OF FACTOR 7 EXPRESSION” (ISIS Pharmaceuticals, Inc., priority 2009, published 2012).

In the oligonucleotide strings, read from the 5' end, every base follows the letter of its sugar. An asterisk marks phosphorothioate; unmarked linkages are phosphodiester. Other units and linkages are bracketed, terminal groups are in braces. A string of capitals states the bases alone. e = 2'-O-(2-methoxyethyl) (MOE); [5mC] = 5-methylcytosine; d = 2'-deoxy (DNA)

Series [1] deals with human Factor 7 mRNA. Nature of the series: Antisense inhibition of human Factor 7 mRNA in HepB3 cells, lipofectin, 50 nM, real-time RT-PCR. The conditions noted are these: for % Inhibition (human Factor 7 mRNA): 50 nM, ~24 h. The series is classed as cell-based. The gist of the method: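 Readout is percent reduction of Factor 7 message compared with untreated cells, after correction for total RNA content quantified by RIBOGREEN®. Cultures were seeded at 4,000 cells per well and treated for about 24 hours before RNA extraction.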
For orientation: In qPCR the cycle at which signal appears reflects the starting amount.

In series [2] the test system is human Factor 7 mRNA. Description: Dose-dependent antisense inhibition of human Factor 7 in HepB3 cells, transfection with lipofectin. The series is classed as cell-based. The conditions noted are these: HepB3, lipofectin, ~16 h. The procedure: Cells were plated at a density of 4,000 cells per well and treated with lipofectin reagent with 3.125 nM, 6.25 nM, 12.5 nM, 25 nM, 50 nM, and 100 nM concentrations of antisense oligonucleotide, as indicated in Table 3. After a treatment period of approximately 16 hours, RNA was isolated from the cells and Factor 7 mRNA levels were measured by real-time RT-PCR, as described herein. Human Factor 7 primer probe set RTS 2927 (forward sequence: […], incorporated herein as SEQ ID NO: 164; reverse sequence: […], incorporated herein as SEQ ID NO: 165; probe sequence: TGGGTGGTCTCCGCGGCCX, incorporated herein as SEQ ID NO: 166) was used to measure mRNA levels. Factor 7 mRNA levels were adjusted according to total RNA content as measured by RIBOGREEN®. Results are presented as percent inhibition of Factor 7, relative to untreated control cells.
Cells were plated at a density of 4,000 cells per well and transfected using lipofectin reagent with 6.25 nM, 12.5 nM, 25.0 nM, 50.0 nM, and 100.0 nM concentrations of antisense oligonucleotide, as indicated in Table 7. After a treatment period of approximately 16 hours, RNA was isolated from the cells and Factor 7 mRNA levels were measured by real-time RT-PCR, as described herein. Human Factor 7 primer probe set RTS 2927 was used to measure mRNA levels. Factor 7 mRNA levels were adjusted according to total RNA content as measured by RIBOGREEN®. Results are presented as percent inhibition of Factor 7, relative to untreated control cells.
Cells were plated at a density of 4,000 cells per well and transfected using lipofectin reagent with 3.125 nM, 6.25 nM, 12.5 nM, 25 nM, 50 nM, and 100 nM concentrations of antisense oligonucleotide, as specified in Table 14. After a treatment period of approximately 16 hours, RNA was isolated from the cells and Factor 7 mRNA levels were measured by quantitative real-time PCR. Human Factor 7 primer probe set RTS 2927 was used to measure mRNA levels. Factor 7 mRNA levels were adjusted according to total RNA content, as measured by RIBOGREEN®. Results are presented as percent inhibition of Factor 7, relative to untreated control cells.

Where [3] appears, read: Example 1, HepB3 cells, lipofectin, relative to untreated control cells.
[4] abbreviates: HepB3 cells, lipofectin, 50 nM antisense oligonucleotide, approximately 24 hours, primer probe set RTS 2927, relative to untreated control.
Where [5] appears, read: HepB3 cells, gapmers targeted to nucleobases 14707 to 14732 of SEQ ID NO: 1 (Table 11).

As to “407606 (antisense e[5mC]*eT*eG*eG*eT*d[5mC]*d[5mC]*dT*dT*dG*d[5mC]*dA*dG*dG*dA*eG*e[5mC]*e[5mC]*e[5mC]*e[5mC]) [compound 407606]”, in series [1] (setting [3]), the “% Inhibition (human Factor 7 mRNA)” value is 89%. The “% Inhibition of human Factor 7 mRNA levels” value in series [1] (setting [4]) is 57%. In series [2] (Example 2), the “percent inhibition of Factor 7 mRNA, 3.125 nM” value (from here on “percent inhibition … 3.125 nM”) was determined as 20%; the “percent inhibition of Factor 7 mRNA, 6.25 nM” value (“percent inhibition … 6.25 nM” below) is on record as 0%; the “percent inhibition of Factor 7 mRNA, 12.5 nM” value (from here on “percent inhibition … 12.5 nM”) came to 49%; the “percent inhibition of Factor 7 mRNA, 25.0 nM” value (shortened to “percent inhibition … 25.0 nM”) amounted to 55%. Further, in series [2] (Example 2), the “percent inhibition of Factor 7 mRNA, 50.0 nM” value (“percent inhibition … 50.0 nM” below) came to 83% and the “percent inhibition of Factor 7 mRNA, 100.0 nM” value (from here on “percent inhibition … 100.0 nM”) amounted to 84%.
“416549 (antisense eG*eA*e[5mC]*eA*eA*dT*dG*dG*dT*d[5mC]*dA*dG*dG*dG*d[5mC]*eT*eG*eG*eT*eT) [compound 416549]”: in series [1] (setting [4]), the “% Inhibition of human Factor 7 mRNA levels” value came to 68%. The “% Inhibition of human Factor 7 mRNA levels” value in series [1] (HepB3 cells, gapmers targeted to nucleobases 11830 to 11869 of SEQ ID NO: 1 (Table 9)) turned out to be 69%. Also, in series [2] (Example 5), the “percent inhibition … 6.25 nM” value turned out to be 38%; the “percent inhibition … 12.5 nM” value is 44%; the “percent inhibition … 25.0 nM” value stood at 63%; the “percent inhibition … 50.0 nM” value came out at 73%. Moreover, the “percent inhibition … 100.0 nM” value in series [2] (Example 5) is 78%.
Regarding “416508 (antisense e[5mC]*eG*eA*eG*eT*dT*d[5mC]*dT*dG*d[5mC]*dA*dG*dG*dA*dG*e[5mC]*eG*eG*e[5mC]*e[5mC]) [compound 416508]”, in series [1] (setting [4]), the “% Inhibition of human Factor 7 mRNA levels” value is 67%. Also, in series [1] (HepB3 cells, gapmers (5-10-5, 3-14-3, 2-13-5 MOE) targeted to nucleobases 4868 to 4899 of SEQ ID NO: 1), the “% Inhibition of human Factor 7 mRNA levels” value is on record as 67%. For the same substance, in series [2] (Example 5), the “percent inhibition … 6.25 nM” value was 42%; the “percent inhibition … 12.5 nM” value stood at 51%; the “percent inhibition … 25.0 nM” value worked out at 71%; the “percent inhibition … 50.0 nM” value came out at 79%. Also, the “percent inhibition … 100.0 nM” value in series [2] (Example 5) is 89%.
In the case of “407900 (antisense e[5mC]*e[5mC]*e[5mC]*e[5mC]*eA*d[5mC]*dA*dA*dT*dT*d[5mC]*dG*dG*d[5mC]*d[5mC]*eT*eT*eG*eG*eG) [compound 407900]”, the “% Inhibition (human Factor 7 mRNA)” value in series [1] (setting [3]) stood at 91%. In addition, the “% Inhibition of human Factor 7 mRNA levels” value in series [1] (setting [4]) came out at 78%. Further, in series [2] (Example 2), the “percent inhibition … 3.125 nM” value is 52%; the “percent inhibition … 6.25 nM” value came to 58%; the “percent inhibition … 12.5 nM” value was found to be 80%; the “percent inhibition … 25.0 nM” value was 87%. In series [2] (Example 2), the “percent inhibition … 50.0 nM” value came out at 94% and the “percent inhibition … 100.0 nM” value stood at 91%. In series [2] (Example 5), the “percent inhibition … 6.25 nM” value is 18%; the “percent inhibition … 12.5 nM” value is reported as 36%; the “percent inhibition … 25.0 nM” value is reported as 61%; the “percent inhibition … 50.0 nM” value is reported as 82%. Also, in series [2] (Example 5), the “percent inhibition … 100.0 nM” value is recorded as 91%.
As for “407910 (antisense eA*eG*eT*e[5mC]*e[5mC]*dT*dT*dG*d[5mC]*dT*dG*d[5mC]*d[5mC]*dA*dT*e[5mC]*e[5mC]*eG*eA*eG) [compound 407910]”, in series [1] (setting [3]), the “% Inhibition (human Factor 7 mRNA)” value was 86%. Also, in series [1] (setting [4]), the “% Inhibition of human Factor 7 mRNA levels” value is 72%. For the same substance, in series [2] (Example 2), the “percent inhibition … 3.125 nM” value is 31%; the “percent inhibition … 6.25 nM” value was found to be 44%; the “percent inhibition … 12.5 nM” value was determined as 69%; the “percent inhibition … 25.0 nM” value is 68%. Further, in series [2] (Example 2), the “percent inhibition … 50.0 nM” value came to 82% and the “percent inhibition … 100.0 nM” value is given as 89%.
As to “416477 (antisense e[5mC]*eA*eG*e[5mC]*e[5mC]*dT*dG*dA*dG*dG*d[5mC]*d[5mC]*dA*dG*d[5mC]*eA*eG*eA*eT*e[5mC]) [compound 416477]”, the “% Inhibition of human Factor 7 mRNA levels” value in series [1] (setting [4]) is listed as 74%. Also, the “% Inhibition of human Factor 7 mRNA levels” value in series [1] (setting [5]) turned out to be 71%. In series [2] (Example 5), the “percent inhibition … 6.25 nM” value was determined as 21%; the “percent inhibition … 12.5 nM” value is 46%; the “percent inhibition … 25.0 nM” value came to 64%; the “percent inhibition … 50.0 nM” value is 78%. In series [2] (Example 5), the “percent inhibition … 100.0 nM” value stood at 87%.
As to “407641 (antisense e[5mC]*e[5mC]*eT*eG*eA*dG*dG*d[5mC]*d[5mC]*dA*dG*d[5mC]*dA*dG*dA*eT*e[5mC]*eA*e[5mC]*eG) [compound 407641]”, the “% Inhibition (human Factor 7 mRNA)” value in series [1] (setting [3]) stood at 94%. Besides, the “% Inhibition of human Factor 7 mRNA levels” value in series [1] (setting [4]) was determined as 73%. Moreover, the “% Inhibition of human Factor 7 mRNA levels” value in series [1] (setting [5]) is given as 68%. In series [2] (Example 2), the “percent inhibition … 3.125 nM” value is given as 53%; the “percent inhibition … 6.25 nM” value stood at 53%; the “percent inhibition … 12.5 nM” value was 71%; the “percent inhibition … 25.0 nM” value came out at 84%. For the same substance, in series [2] (Example 2), the “percent inhibition … 50.0 nM” value was determined as 88% and the “percent inhibition … 100.0 nM” value worked out at 89%.
With “416507 (antisense eG*eG*eT*eT*eA*d[5mC]*dT*dG*dA*dG*d[5mC]*dG*d[5mC]*dG*dG*eA*eA*eG*eA*eA) [compound 416507]”, in series [1] (setting [4]), the “% Inhibition of human Factor 7 mRNA levels” value was 73%. In series [2] (Example 5), the “percent inhibition … 6.25 nM” value is 30%; the “percent inhibition … 12.5 nM” value is 53%; the “percent inhibition … 25.0 nM” value is listed as 70%; the “percent inhibition … 50.0 nM” value was determined as 77%. In series [2] (Example 5), the “percent inhibition … 100.0 nM” value is recorded as 72%.
As for “416472 (antisense e[5mC]*eA*eG*e[5mC]*e[5mC]*dT*dT*dG*dG*d[5mC]*dT*dT*dT*d[5mC]*dT*e[5mC]*eT*e[5mC]*e[5mC]*eA) [compound 416472]”, the “% Inhibition of human Factor 7 mRNA levels” value in series [1] (setting [4]) is on record as 76%. In series [2] (Example 5), the “percent inhibition … 6.25 nM” value is reported as 16%; the “percent inhibition … 12.5 nM” value stood at 44%; the “percent inhibition … 25.0 nM” value came out at 64%; the “percent inhibition … 50.0 nM” value turned out to be 80%. Moreover, in series [2] (Example 5), the “percent inhibition … 100.0 nM” value is given as 88%.
As to “416446 (antisense eG*eG*eT*e[5mC]*eA*d[5mC]*dT*dG*d[5mC]*dA*dG*dT*dA*d[5mC]*dT*eG*e[5mC]*eT*e[5mC]*eA) [compound 416446]”, in series [1] (setting [4]), the “% Inhibition of human Factor 7 mRNA levels” value came out at 64%. Besides, in series [2] (Example 5), the “percent inhibition … 6.25 nM” value is 25%; the “percent inhibition … 12.5 nM” value was 24%; the “percent inhibition … 25.0 nM” value was determined as 50%; the “percent inhibition … 50.0 nM” value is recorded as 69%. Also, in series [2] (Example 5), the “percent inhibition … 100.0 nM” value is 64%.
On to “407643 (antisense e[5mC]*eA*e[5mC]*eA*e[5mC]*dA*dT*dG*dG*dA*dG*dT*d[5mC]*dA*dG*e[5mC]*eA*eT*e[5mC]*eG) [compound 407643]”, for which the “% Inhibition (human Factor 7 mRNA)” value in series [1] (setting [3]) is 84%. Also, the “% Inhibition (human Factor 7 mRNA)” value in series [1] (Example 6 microwalk, nucleobases 15098 to 15122 of SEQ ID NO: 1, HepB3, lipofectin) is 69%. The “% Inhibition of human Factor 7 mRNA levels” value in series [1] (setting [4]) came to 80%. Moreover, in series [2] (Example 2), the “percent inhibition … 3.125 nM” value was determined as 16%; the “percent inhibition … 6.25 nM” value came to 59%; the “percent inhibition … 12.5 nM” value amounted to 68%; the “percent inhibition … 25.0 nM” value amounted to 76%. For the same substance, in series [2] (Example 2), the “percent inhibition … 50.0 nM” value turned out to be 92% and the “percent inhibition … 100.0 nM” value was found to be 95%. In addition, in series [2] (Example 5), the “percent inhibition … 6.25 nM” value came out at 36%; the “percent inhibition … 12.5 nM” value is 49%; the “percent inhibition … 25.0 nM” value was determined as 70%; the “percent inhibition … 50.0 nM” value is 83%. Moreover, the “percent inhibition … 100.0 nM” value in series [2] (Example 5) worked out at 93%.
